Experimental data as given in patent US20060177839A1, “Method for modulating the evolution of a polypeptide encoded by a nucleic acid sequence” (priority 2004, published 2006).

Test system: dfrB1 WT gene (dehydrofolate reductase conferring resistance to trimethoprim)
Conditions: resistance conferred by dfrB1 WT gene

Structure (SMILES): COc1cc(Cc2cnc(N)nc2N)cc(OC)c1OC [trimethoprim]
- MIC: 512 micg/ml
